Test results as given in patent US12404268B2, “2-heteroaryl aminoquinazolinone derivative” (Sumitomo Pharma Co., Ltd., priority 2020, dated 2025).

Tested on: neurons induced to differentiate from SCN1A gene deficient human iPS cells
Assay: Test for measuring hyperexcitation suppression activity (spontaneous calcium oscillation frequency)
Assay type: cell-based
Conditions: Neuron; for inhibition at 10 µM / inhibition at 1 µM / inhibition at 100 µM / inhibition at 0.1 µM: Homo sapiens, read-out: inhibition rate; for IC50: SCN1A gene deficient human iPS cell-derived neurons, FLIPR Calcium 6, FDSS7000EX, read-out: IC50 (50% inhibitory concentration, frequency of spontaneous calcium oscillation)
Text: Test for Measuring Hyperexcitation Suppression Activity Using Neurons Induced to Differentiate from SCN1A Gene Deficient Human iPS Cells
(1) Induction of Differentiation from Human iPS cells to Neurons
Half of the culture solution was exchanged once every 3 to 4 days.
(2) Fluorescent Calcium Probe Treatment, Addition of Compound, and Evaluation of Intracellular Calcium Concentration
Half of the culture solution was removed on day 60 from induction of differentiation or thereafter. A medium for measurement comprising a fluorescent calcium probe (Molecular Device, product name: FLIPR Calcium 6 Assay Bulk Kit, cat #R8191) was added at an amount equal to the remaining medium. The culture was left standing for 30 minutes and subjected to measurement.
The test compounds were serially diluted with a dimethyl sulfoxide (DMSO) solution so that the final concentration would be 0.1 to 100 μM to prepare a concentrate with a concentration that is 6-fold of the final concentration.
The intensity of fluorescence of a calcium probe was measured over time with FDSS7000EX (Hamamatsu Photonics) to evaluate the change in intracellular calcium concentrations. First, the intensity of fluorescence was measured for 2 minutes. The compound solutions were then added using FDSS7000EX for an additional 8 minute measurement of fluorescence intensity. The frequency of spontaneous calcium oscillation was quantified as an indicator of nerve excitation. With the frequency for 2 minutes before the addition of the compound solutions as 100%, the ratio of frequency for the last 2 minutes after addition of the compound solutions was calculated.

Row | Structure (SMILES) | inhibition at 10 µM [%] | inhibition at 1 µM [%] | other results
1 | CCc1ccc(Nc2nc3ccc(F)cc3c(=O)n2-c2ccccc2)cn1 [Example 50] | 100 |  | 
2 | COc1cc2nc(Nc3cccc4ncccc34)n(C)c(=O)c2cc1OC [Example 220] |  |  | IC50: > 10 µM
3 | N#Cc1ccc2nc(Nc3cccnc3)n(-c3ccccc3F)c(=O)c2c1 [Example 110] |  | 66 | 
4 | O=c1c2cc(F)ccc2nc(Nc2ccnnc2)n1-c1ccccc1 [Example 19] |  |  | IC50: 2.2 µM
5 | CN1CC[C@H](n2c(Nc3cccnc3)nc3ccc(F)cc3c2=O)C1 [Example 82] | 17 |  | 
6 | COc1ccc(-n2c(Nc3cccnc3)nc3ccc(F)cc3c2=O)cc1 [Example 143] |  | 45 | 
7 | CN(C)c1cncc(Nc2nc3ccc(F)cc3c(=O)n2-c2ccccc2)c1 [Example 216] |  |  | IC50: > 100 µM
8 | Nc1ccc2nc(Nc3cccnc3)n(-c3ccccc3)c(=O)c2c1 [Example 177] |  |  | inhibition at 100 µM: 100%
9 | O=c1c2cc(F)ccc2nc(Nc2cccnc2)n1[C@H]1CCCOC1 [Example 164] | 92 |  | 
10 | Cc1ccc(Nc2nc3ccc(F)cc3c(=O)n2-c2ccccc2)nc1 [Example 137, 6-fluoro-2-((5-methylpyridin-2-yl)amino)-3-phenylquinazolin-4(3H)-one] |  | 85 | 
11 | O=c1c2cc(Cl)ccc2nc(Nc2cccnn2)n1-c1ccccc1 [Example 9] |  |  | IC50: 0.6 µM
12 | COCc1nccc(Nc2nc3ccc(F)cc3c(=O)n2-c2ccccc2)n1 [Example 37] | 68 |  | 
13 | N#Cc1ccc2nc(Nc3ccccn3)n(-c3ccccc3)c(=O)c2c1 [Example 88] | 95 |  | 
14 | O=c1c2cc(F)ccc2nc(Nc2cnccn2)n1-c1ccccc1 [Example 39, 6-fluoro-3-phenyl-2-(pyrazin-2-ylamino)quinazolin-4(3H)-one] |  | 100 | 
15 | O=c1c2cc(F)ccc2nc(Nc2cccnc2)n1CCO [Example 173] |  |  | inhibition at 100 µM: 6%
16 | O=c1c2cc(Cl)ccc2nc(Nc2cn[nH]c2)n1-c1ccccc1 [Example 217] |  |  | IC50: > 10 µM
17 | COc1cccnc1Nc1nc2ccc(F)cc2c(=O)n1-c1ccccc1 [Example 188] |  |  | IC50: > 10 µM
18 | O=c1c2cc(F)ccc2nc(Nc2cccnc2)n1-c1cccc(Cl)c1 [Example 134] |  | 56 | 
19 | NCCn1c(Nc2cccnc2)nc2ccc(F)cc2c1=O [Example 179] | 98 |  | 
20 | O=c1c2cc(F)ccc2nc(Nc2ccc(F)cn2)n1-c1ccccc1 [Example 128] |  | 69 | 
21 | O=c1c2cc(F)ccc2nc(Nc2cccc(F)n2)n1-c1ccccc1 [Example 129] |  | 50 | 
22 | Cc1ccc(F)cc1-n1c(Nc2cccnc2)nc2ccc(C#N)cc2c1=O [Example 104, 3-(5-fluoro-2-methylphenyl)-4-oxo-2-(pyridin-3-ylamino)-3,4-dihydroquinazoline-6-carbonitrile] |  |  | inhibition at 0.1 µM: 29%
23 | O=c1c2cc(Cl)ccc2nc(Nc2cncnc2)n1-c1ccccc1 [Example 6] |  |  | IC50: 0.4 µM
24 | CN1CCC[C@H](n2c(Nc3cccnc3)nc3ccccc3c2=O)C1 [Example 71] |  | 51 | 

Row | Structure (SMILES) | inhibition at 10 µM [%] | inhibition at 1 µM [%] | other results
25 | O=c1c2ccccc2nc(Nc2ccon2)n1-c1ccccc1 [Example 232] | 73 |  | 
26 | O=c1c2ccc(F)cc2nc(Nc2cccnc2)n1-c1ccccc1 [Example 222] |  |  | IC50: > 100 µM
27 | O=c1c2cc(F)ccc2nc(Nc2cccnc2)n1[C@H]1CCOC1 [Example 199] |  |  | IC50: > 10 µM
28 | Cc1ccnc(Nc2nc3ccc(F)cc3c(=O)n2-c2ccccc2)c1 [Example 125] |  | 29 | 
29 | C[C@@H]1CN(C)CC[C@H]1n1c(Nc2cccnc2)nc2ccc(F)cc2c1=O [Example 166] | 36 |  | 
30 | COc1ccc2c(=O)n(-c3ccccc3)c(Nc3cccnc3)nc2c1 [Example 225] |  |  | IC50: > 100 µM
31 | CN(C)c1cncc(-n2c(Nc3cccnc3)nc3ccc(F)cc3c2=O)c1 [Example 215] |  |  | IC50: > 10 µM
32 | O=c1c2ccccc2nc(Nc2ccc3cnoc3c2)n1-c1ccccc1 [Example 94] |  | 27 | 
33 | COCc1nccc(Nc2nc3ccc(Cl)cc3c(=O)n2-c2ccccc2)n1 [Example 21] | 27 |  | 
34 | COc1ncccc1Nc1nc2ccc(Cl)cc2c(=O)n1-c1ccccc1 [Example 10, 6-chloro-2-((2-methoxypyridin-3-yl)amino)-3-phenylquinazolin-4(3H)-one] |  |  | IC50: 0.3 µM
35 | Cc1cnccc1Nc1nc2ccc(F)cc2c(=O)n1-c1ccccc1 [Example 132] |  | 38 | 
36 | CN1CCC[C@@H](n2c(Nc3cccnc3)nc3ccc(F)cc3c2=O)C1 [Example 100] | 100 |  | 
37 | O=c1c2cc(F)ccc2nc(Nc2cccnc2)n1C1(c2ccccc2)COC1 [Example 168] |  | 58 | 
38 | COc1cccc2c(=O)n(-c3ccccc3)c(Nc3cccnc3)nc12 [Example 116] |  |  | inhibition at 100 µM: 59%
39 | O=c1c2cc(F)ccc2nc(Nc2cccnc2)n1CCN1CCCC1 [Example 159] | 56 |  | 
40 | O=c1c2cc(Cl)ccc2nc(Nc2ccc3nncn3c2)n1-c1ccccc1 [Example 16] | 42 |  | 
41 | Cc1ccc(-n2c(Nc3cccnc3)nc3ccc(C#N)cc3c2=O)c(Cl)c1 [Example 103] |  | 84 | 
42 | CN1[C@@H]2CC[C@H]1C[C@@H](n1c(Nc3cccnc3)nc3ccccc3c1=O)C2 [Example 79] |  | 47 | 
43 | O=c1c2ccccc2nc(Nc2cccn3cncc23)n1-c1ccccc1 [Example 69, 2-(imidazo[1,5-a]pyridin-8-ylamino)-3-phenylquinazolin-4(3H)-one] |  |  | inhibition at 0.1 µM: 39%
44 | COc1cncc(-n2c(Nc3cccnc3)nc3ccc(F)cc3c2=O)c1 [Example 185] | 31 |  | 
45 | COc1ccccc1-n1c(Nc2cccnc2)nc2ccc(F)cc2c1=O [Example 142, 6-fluoro-3-(2-methoxyphenyl)-2-(pyridin-3-ylamino)quinazolin-4(3H)-one] |  | 86 | 
46 | CC(C)n1c(Nc2cccnc2)nc2ccc(F)cc2c1=O [Example 59] |  | 39 | 
47 | COc1ccc(-n2c(Nc3cccnc3)nc3ccc(C#N)cc3c2=O)c(C)c1 [Example 102, 3-(4-methoxy-2-methylphenyl)-4-oxo-2-(pyridin-3-ylamino)-3,4-dihydroquinazoline-6-carbonitrile] | 92 |  | 
48 | O=c1c2cc(F)ccc2nc(Nc2cc(F)ccn2)n1-c1ccccc1 [Example 127, 6-fluoro-2-((4-fluoropyridin-2-yl)amino)-3-phenylquinazolin-4(3H)-one] |  | 96 | 

Row | Structure (SMILES) | inhibition at 10 µM [%] | inhibition at 1 µM [%] | other results
49 | O=c1c2cc(F)ccc2nc(Nc2cccnc2)n1Cc1ccccn1 [Example 157] | 90 |  | 
50 | O=c1c2ccccc2nc(Nc2ccc3ncoc3c2)n1-c1ccccc1 [Example 98] |  | 51 | 
51 | O=c1c2cc(F)ccc2nc(Nc2ccncc2F)n1-c1ccccc1 [Example 140] |  | 46 | 
52 | CN1CCC(Cn2c(Nc3cccnc3)nc3ccc(F)cc3c2=O)CC1 [Example 156] | 95 |  | 
53 | O=c1c2cc(Cl)ccc2nc(Nc2ccc3nccnc3c2)n1-c1ccccc1 [Example 5] |  |  | IC50: 6.1 µM
54 | Cc1noc(C)c1-n1c(Nc2cccnc2)nc2ccc(F)cc2c1=O [Example 195] |  |  | IC50: > 10 µM
55 | CC(=O)Nc1ccc2nc(Nc3cccnc3)n(-c3ccccc3)c(=O)c2c1 [Example 210] |  |  | IC50: > 100 µM
56 | CN(C)CCn1c(Nc2cccnc2)nc2ccc(F)cc2c1=O [Example 207] |  |  | IC50: > 10 µM
57 | Cc1cncc(Nc2nc3ccc(F)cc3c(=O)n2-c2ccccc2)c1 [Example 27] |  | 37 | 
58 | O=c1c2cc(F)ccc2nc(Nc2cnsc2)n1-c1ccccc1 [Example 178] | 76 |  | 
59 | CN1CC2(CC(n3c(Nc4cccnc4)nc4ccccc4c3=O)C2)C1 [Example 83] | 96 |  | 
60 | O=c1c2cc(F)ccc2nc(Nc2cccnc2)n1C1CC1 [Example 165] | 100 |  | 
61 | CN1[C@@H]2CC[C@H]1C[C@@H](n1c(Nc3cccnc3)nc3ccc(F)cc3c1=O)C2 [Example 80] | 49 |  | 
62 | O=c1c2cc(F)ccc2nc(Nc2cccnc2)n1C1(c2ccccn2)CC1 [Example 206] |  |  | IC50: > 100 µM
63 | O=c1c2cc(F)ncc2nc(Nc2cccnc2)n1-c1ccccc1 [Example 190] |  |  | IC50: > 10 µM
64 | Cc1ncccc1Nc1nc2ccc(Cl)cc2c(=O)n1-c1ccccc1 [Example 24] | 54 |  | 
65 | O=c1c2cc(F)ccc2nc(Nc2cncc(Cl)c2)n1-c1ccccc1 [Example 45, 2-((5-chloropyridin-3-yl)amino)-6-fluoro-3-phenylquinazolin-4(3H)-one] |  | 100 | 
66 | Cc1ccccc1-n1c(Nc2cccnc2)nc2ccc(F)cc2c1=O [Example 107, 6-fluoro-2-(pyridin-3-ylamino)-3-(o-tolyl)quinazolin-4(3H)-one] |  |  | inhibition at 0.1 µM: 89%
67 | CN1[C@@H]2CC[C@H]1C[C@H](n1c(Nc3cccnc3)nc3ccccc3c1=O)C2 [Example 76] |  | 35 | 
68 | Cn1cnc(Nc2nc3ccccc3c(=O)n2-c2ccccc2)c1 [Example 231] |  |  | IC50: > 10 µM
69 | O=c1c2cc(F)ccc2nc(Nc2cccnc2)n1-c1ccc(Cl)cc1 [Example 135] |  | 24 | 
70 | Cc1ccccc1C1(n2c(Nc3cccnc3)nc3ccc(F)cc3c2=O)CC1 [Example 167] | 100 |  | 
